Source: patent US10583140B2, “Ingenol analogs, pharmaceutical compositions and methods of use thereof” (GlaxoSmithKline Intellectual Property Development Limited, priority 2016, dated 2020)

These compounds were tested on HIV-infected Jurkat cell clones (C16, I15 and N6) (assay: Jurkat HIV Latency assay (HIV activation, luciferase)). Conditions: Homo sapiens, HIV activation by HIV expressed luciferase (Steady-Glo), cells incubated with compound 24 hours at 37° C.
Type: cell-based
Experimental: For the Jurkat HIV Latency assay, compounds are dissolved and titrated in DMSO and diluted 100-fold in assay medium (RPMI-1640 containing 10% fetal bovine serum) containing an equal mixture of three HIV-infected Jurkat cell clones (C16, I15 and N6) at a total concentration of 1-2×10e^5 cells/mL. To test stability, compounds are pre-incubated in an assay medium for 48 hours at 37° C. prior to adding cells (48 hr EC50). Compounds that induce HIV expression result in a dose-dependent production of the HIV expressed luciferase enzyme. After the incubation of cells with compound for 24 hours at 37° C., HIV activation and cytotoxicity are determined by measuring luminescence after the addition of Promega Steady-Glo® Luciferase Assay reagent or CellTiter-Glo® Luminescent Cell Viability Assay reagent, respectively.
`CC(=O)OCC1=C[C@@H]2C(=O)[C@]3(C=C(C)[C@H](OC(=O)N(C)c4ccc(Cl)cc4)[C@@]3(O)[C@@H]1O)[C@H](C)C[C@@H]1[C@H]2C1(C)C` [Example 1, ((1aR,2S,5R,5aS,6S,8aS,9R,10aR)-6-(((4-chlorophenyl) (methyl)carbamoyl)oxy)-5,5a-dihydroxy-1,1,7,9-tetramethyl-11-oxo-1a,2,5,5a,6,9,10,10a-octahydro-1H-2,8a-methanocyclopenta[a]cyclopropa[e][10]annulen-4-yl)methyl acetate] was tested, and the EC50 was 7 nM.
In the case of `CC1=C[C@]23C(=O)[C@@H](C=C(COC(=O)c4ccccc4)[C@@H](O)[C@]2(O)[C@H]1OC(=O)N(C)c1ccc(Cl)cc1)[C@H]1[C@@H](C[C@H]3C)C1(C)C` [Example 2, ((1aR,2S,5R,5aS,6S,8aS,9R,10aR)-6-(((4-chlorophenyl) (methyl)carbamoyl)oxy)-5,5a-dihydroxy-1,1,7,9-tetramethyl-11-oxo-1a,2,5,5a,6,9,10,10a-octahydro-1H-2,8a-methanocyclopenta [a]cyclopropa[e][10]annulen-4-yl)methyl benzoate], the EC50 is reported as 22 nM.
For `CC1=C[C@]23C(=O)[C@@H](C=C(CN4C(=O)c5ccccc5C4=O)[C@@H](O)[C@]2(O)[C@H]1OC(=O)N(C)c1ccc(Cl)cc1)[C@H]1[C@@H](C[C@H]3C)C1(C)C` [Example 3, (1aR,2S,5R,5aS,6S,8aS,9R,10aR)-4-((1,3-dioxoisoindolin-2-yl)methyl)-5,5a-dihydroxy-1,1,7,9-tetramethyl-11-oxo-1a,2,5,5a,6,9,10,10a-octahydro-1H-2,8a-methanocyclopenta[a]cyclopropa[e][10]annulen-6-yl (4-chlorophenyl) (methyl)carbamate], the EC50 was 1110 nM.
In the case of `CC1=C[C@]23C(=O)[C@@H](C=C(CO)[C@@H](O)[C@]2(O)C1=O)[C@H]1[C@@H](C[C@H]3C)C1(C)C` [Example 4, (1aR,2S,5R,5aS,8aS,9R,10aR)-5,5a-dihydroxy-4-(hydroxymethyl)-1,1,7,9-tetramethyl-1a,2,5,5a,10,10a-hexahydro-1H-2,8a-methanocyclopenta[a]cyclopropa[e][10]annulene-6,11 (9H)-dione], the EC50 is reported as 4940 nM.
`CC1=C[C@]23C(=O)[C@@H](C=C(COC(=O)N(C)c4ccc(Cl)cc4)[C@@H](O)[C@]2(O)[C@H]1O)[C@H]1[C@@H](C[C@H]3C)C1(C)C` [Example 5, ((1aR,2S,5R,5aR,6S,8aS,9R,10aR)-5,5a,6-trihydroxy-1,1,7,9-tetramethyl-11-oxo-1a,2,5,5a,6,9,10,10a-octahydro-1H-2,8a-methanocyclopenta[a]cyclopropa[e][10]annulen-4-yl)methyl (4-chlorophenyl)(methyl)carbamate] showed an EC50 of 616 nM.
With `CC1=C[C@]23C(=O)[C@@H](C=C(COC(=O)Nc4ccccc4)[C@@H](O)[C@]2(O)[C@H]1O)[C@H]1[C@@H](C[C@H]3C)C1(C)C` [Example 6, ((1aR,2S,5R,5aR,6S,8aS,9R,10aR)-5,5a,6-trihydroxy-1,1,7,9-tetramethyl-11-oxo-1a,2,5,5a,6,9,10,10a-octahydro-1H-2,8a-methanocyclopenta[a]cyclopropa[e][10]annulen-4-yl)methyl phenylcarbamate] the EC50 was 3680 nM.
`CCCCNC(=O)OCC1=C[C@@H]2C(=O)[C@]3(C=C(C)[C@H](O)[C@@]3(O)[C@@H]1O)[C@H](C)C[C@@H]1[C@H]2C1(C)C` [Example 7, ((1aR,2S,5R,5aR,6S,8aS,9R,10aR)-5,5a,6-trihydroxy-1,1,7,9-tetramethyl-11-oxo-1a,2,5,5a,6,9,10,10a-octahydro-1H-2,8a-methanocyclopenta[a]cyclopropa[e][10]annulen-4-yl)methyl butylcarbamate] gave an EC50 of 1050 nM.
Work on `CC1=C[C@]23C(=O)[C@@H](C=C(COC(=O)NCc4ccccc4)[C@@H](O)[C@]2(O)[C@H]1O)[C@H]1[C@@H](C[C@H]3C)C1(C)C` [Example 8, ((1aR,2S,5R,5aR,6S,8aS,9R,10aR)-5,5a,6-trihydroxy-1,1,7,9-tetramethyl-11-oxo-1a,2,5,5a,6,9,10,10a-octahydro-1H-2,8a-methanocyclopenta[a]cyclopropa[e][10]annulen-4-yl)methyl benzylcarbamate] yielded an EC50 of 4330 nM.
`CC1=C[C@]23C(=O)[C@@H](C=C(COC(=O)N(C)C4CCCCC4)[C@@H](O)[C@]2(O)[C@H]1O)[C@H]1[C@@H](C[C@H]3C)C1(C)C` [Example 9, ((1aR,2S,5R,5aR,6S,8aS,9R,10aR)-5,5a,6-trihydroxy-1,1,7,9-tetramethyl-11-oxo-1a,2,5,5a,6,9,10,10a-octahydro-1H-2,8a-methanocyclopenta[a]cyclopropa[e][10]annulen-4-yl)methyl cyclohexyl(methyl)carbamate] was tested, and the EC50 was 50000 nM.
In the case of `CC1=C[C@]23C(=O)[C@@H](C=C(COC(=O)N4CCc5ccccc54)[C@@H](O)[C@]2(O)[C@H]1O)[C@H]1[C@@H](C[C@H]3C)C1(C)C` [Example 10, ((1aR,2S,5R,5aR,6S,8aS,9R,10aR)-5,5a,6-trihydroxy-1,1,7,9-tetramethyl-11-oxo-1a,2,5,5a,6,9,10,10a-octahydro-1H-2,8a-methanocyclopenta[a]cyclopropa[e][10]annulen-4-yl)methyl indoline-1-carboxylate], the EC50 is reported as 278 nM.
In the case of `CC1=C[C@]23C(=O)[C@@H](C=C(COC(=O)N4CCc5ccccc54)[C@@H](O)[C@]2(O)[C@H]1OC(=O)N1CCc2ccccc21)[C@H]1[C@@H](C[C@H]3C)C1(C)C` [Example 11, (1aR,2S,5R,5aS,6S,8aS,9R,10aR)-5,5a-dihydroxy-4-(((indoline-1-carbonyl)oxy)methyl)-1,1,7,9-tetramethyl-11-oxo-1a,2,5,5a,6,9,10,10a-octahydro-1H-2,8a-methanocyclopenta[a]cyclopropa[e][10]annulen-6-yl indoline-1-carboxylate], the EC50 is reported as 3500 nM.
In the case of `CC1=C[C@]23C(=O)[C@@H](C=C(COc4ncc(C(F)(F)F)cn4)[C@@H](O)[C@]2(O)[C@H]1O)[C@H]1[C@@H](C[C@H]3C)C1(C)C` [Example 12, (1aR,2S,5R,5aR,6S,8aS,9R,10aR)-5,5a,6-trihydroxy-1,1,7,9-tetramethyl-4-(((5-(trifluoromethyl)pyrimidin-2-yl)oxy)methyl)-1a,2,5,5a,6,9,10,10a-octahydro-1H-2,8a-methanocyclopenta[a]cyclopropa[e][10]annulen-11-one], the EC50 is reported as 5170 nM.
